Results on twelve molecules are retold here after patent US8044100B2, “Methods and compositions for treating amyloid-related diseases” (Bellus Health Inc., priority 2004, dated 2011).

SMILES strings stand for the structures.

In this test the test system is Aβ peptides (Aβ40, Aβ42) in the plasma and brain of TgCRND8 mice. As to the kind of experiment: Short term treatment (14 or 28 days) in TgCRND8 mice: Aβ levels in plasma and brain by ELISA.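 As to Aβ40 Change Insoluble: symbols grade percent change in Aβ versus untreated control with plus for increase and minus for decrease.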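 As to Aβ40 Change Soluble: symbols grade percent change in Aβ versus untreated control with plus for increase and minus for decrease.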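 As to Aβ42 Change Insoluble: symbols grade percent change in Aβ versus untreated control with plus for increase and minus for decrease.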 It counts as in vivo, mouse. To be noted: for Aβ40 Change / Aβ42 Change: plasma. The method, then: The short term therapeutic effect of 19 compounds of the invention was studied. These compounds were administered over a 14 or 28 day period at the end of which the levels of Aβ peptides in the plasma and brain of TgCRND8 animals were determined.
Male and female transgenic mice from the 3rd and 4th B6C3F1 generations were used in this example and given daily subcutaneous or oral administrations of one of a series of compounds for 14 or 28 days. The following abbreviations are used to designate these animals from the 3rd and 4th generation backcross in the present protocol: TgCRND8-2.B6C3F1(N3); TgCRND8-2.B6C3F1 (N4).
Baseline animals (Group 1) consisted of naive TgCRND8-2. B6C3F1(N3) at 11±1 weeks of age. These mice were used to determine the Aβ levels in the plasma and brain of naive transgenic animals at the initiation of treatment.
Starting at 11 weeks of age (±1 week) animals received daily administration of their respective treatment for a period of 14 or 28 days (groups 2-21), at a dose of 250 mg/kg at 10 ml/kg or of vehicle only (water; group 2) or 1% methyl cellulose only (group 21). The route of administration was subcutaneous for water-soluble compounds and oral for compounds solubilized in methylcellulose 1%. (MC 1%). At the end of the treatment periods, plasma and perfused brains were collected for quantification of Aβ levels.
At 11±1 weeks of age for the Baseline group, and at the end of the treatment period (14 or 28 days) for Groups 2 to 21, at 24 hours after the last compound administration animals were sacrificed and samples collected. An approximate blood volume of 500 μl was collected from the orbital sinus and kept on ice until centrifugation at 4° C. at a minimum speed of 3,000 rpm for 10 minutes. Plasma samples were immediately frozen and stored at −80° C. pending analysis. The brains were removed, frozen, and stored at −80° C. awaiting analysis.
Brains were weighted frozen and homogenized with 4 volumes of ice cold 50 mM Tris-Cl pH 8.0 buffer with protease inhibitor cocktail (4 mL of buffer for 1 g of wet brain). Samples were spun at 15000 g for 20 minutes and the supernatants were transferred to fresh tubes. One hundred fifty (150) μl from each supernatant were mixed with 250 μl of 8M guanidine-HCL/50 mM Tris-HCL pH 8.0 (ratio of 0.6 vol supernatant:1 vol 8M guanidium/Tris-HCL 50 mM pH8.0) and 400 μL 5 M guanidium/Tris-HCL 50 mM pH8.0 were added. The tubes were vortexed for 30 seconds and frozen at −80° C. In parallel, pellets were treated with 7 volumes of 5 M guanidine-HCL/50 mM Tris-HCL pH 8.0 (7 mL of guanidine for 1 g of wet brain), vortexed for 30 seconds and frozen at −80° C. Samples were thawed at room temperature, sonicated at 80° C. for 15 minutes and frozen again. This cycle was repeated 3 times to ensure homogeneity and samples were returned to −80° C. pending analysis.
Aβ levels were evaluated in plasma and brain samples by ELISA using Human Aβ40 and Aβ42 Fluorometric ELISA kits from Biosource (Cat. No. 89-344 and 89-348) according to manufacturer's recommended procedures. In short, samples were thawed at room temperature, sonicated for 5 minutes at 80° C. (sonication for brain homogenates; no sonication for plasma samples) and kept on ice. Aβ peptides were captured using 100 μl of the diluted samples to the plate and incubated without shaking at 4° C. overnight. The samples were aspirated and the wells were rinsed 4 times with wash buffer obtained from the Biosource ELISA kit. The anti-Aβ40 or anti-Aβ42 rabbit polyclonal antiserum (specific for the Aβ40 or Aβ42 peptide) was added (100 μl) and the plate was incubated at room temperature for 2 hours with shaking. The wells were aspirated and washed 4 times before adding 100 μl of the alkaline phosphatase labeled anti-rabbit antibody and incubating at room temperature for 2 hours with shaking. The plates were then rinsed 5 times and the fluorescent substrate (100 μl) was added to the plate. […]
A general note: An ELISA detects its analyte on a solid surface through an enzyme-linked reagent.

Setting [1] is: brain homogenate, Day 14, vehicle group, 250 mg/kg daily.
[2] abbreviates: brain homogenate, Day 28, vehicle group, 250 mg/kg daily.
The mark [3] stands for this setting: Day 14, vehicle (water) group, 250 mg/kg daily subcutaneous.
The mark [4] stands for this setting: brain homogenate, Day 28, vehicle group, 250 mg/kg daily, total, not soluble/insoluble.
The mark [5] stands for this setting: Day 28, vehicle (water) group, 250 mg/kg daily subcutaneous.
The mark [6] stands for this setting: brain homogenate, Day 14, methylcellulose group, daily oral.
Setting [7] is: brain homogenate, Day 28, methylcellulose group, daily oral.

`O=S(=O)(O)CCCNC1CC2CCC1C2` (centres unmarked) [BY]: under setting [1], the “Aβ40 Change Insoluble” value is reported as “+++ (increases of 70% or higher)”, the “Aβ40 Change Soluble” value is recorded as “+++ (increases of 70% or higher)” and the “Aβ42 Change Soluble” value is on record as “+++ (increases of 70% or higher)”. Besides, under setting [2], the “Aβ40 Change Insoluble” value was “+++ (increases of 70% or higher)”, the “Aβ40 Change Soluble” value was “+ (increases in the levels of Aβ (relative to untreated control) of 20 to 39%)” and the “Aβ42 Change Insoluble” value was “+++ (increases of 70% or higher)”. In addition, under setting [3], the “Aβ40 Change” value was “+ (increases in the levels of Aβ (relative to untreated control) of 20 to 39%)” and the “Aβ42 Change” value is given as “+ (increases in the levels of Aβ (relative to untreated control) of 20 to 39%)”.

In the case of `CCNCCCS(=O)(=O)O` [CV], where the note is “brain homogenate, Day 14, vehicle group, 250 mg/kg daily, total, not soluble/insoluble”, the “Aβ40 Change (total level)” value is “− (Decreases in the levels of Aβ of 5 to 19%)”. Further, under setting [4], the “Aβ40 Change (total level)” value was “++ (increases of 40 to 69%)” and the “Aβ42 Change (total level)” value is “+++ (increases of 70% or higher)”. Moreover, under setting [3], the “Aβ40 Change” value is “+ (increases in the levels of Aβ (relative to untreated control) of 20 to 39%)” and the “Aβ42 Change” value is on record as “++ (increases of 40 to 69%)”. Besides, under setting [5], the “Aβ40 Change” value is “++ (increases of 40 to 69%)” and the “Aβ42 Change” value is “++ (increases of 40 to 69%)”.

As to `CC12CC3CC(C)(C1)CC(NCCCS(=O)(=O)O)(C3)C2` [CY], under setting [6], the “Aβ40 Change Soluble” value is “− (Decreases in the levels of Aβ of 5 to 19%)”, the “Aβ42 Change Insoluble” value was “++ (increases of 40 to 69%)” and the “Aβ42 Change Soluble” value is reported as “+++ (increases of 70% or higher)”. For the same molecule, under setting [7], the “Aβ40 Change Insoluble” value is on record as “+++ (increases of 70% or higher)”, the “Aβ40 Change Soluble” value is listed as “++ (increases of 40 to 69%)”, the “Aβ42 Change Insoluble” value is reported as “+ (increases in the levels of Aβ (relative to untreated control) of 20 to 39%)” and the “Aβ42 Change Soluble” value is “+++ (increases of 70% or higher)”. Besides, where the note is “Day 28, methylcellulose group, daily oral”, the “Aβ42 Change” value is recorded as “+ (increases in the levels of Aβ (relative to untreated control) of 20 to 39%)”.

For `O=S(=O)(O)CC(O)CNC1CCCCC1` (centres unmarked) [DC], under setting [1], the “Aβ40 Change Insoluble” value is listed as “−− (decreases of 20 to 38%)”, the “Aβ42 Change Insoluble” value was “−− (decreases of 20 to 38%)” and the “Aβ42 Change Soluble” value was “+ (increases in the levels of Aβ (relative to untreated control) of 20 to 39%)”. Further, under setting [2], the “Aβ40 Change Insoluble” value is recorded as “+ (increases in the levels of Aβ (relative to untreated control) of 20 to 39%)”, the “Aβ40 Change Soluble” value is given as “− (Decreases in the levels of Aβ of 5 to 19%)”, the “Aβ42 Change Insoluble” value was “+++ (increases of 70% or higher)” and the “Aβ42 Change Soluble” value is given as “++ (increases of 40 to 69%)”. In addition, under setting [3], the “Aβ40 Change” value is “++ (increases of 40 to 69%)” and the “Aβ42 Change” value is “++ (increases of 40 to 69%)”. The “Aβ40 Change” value under setting [5] is reported as “++ (increases of 40 to 69%)”.

With `CCC(CC)NCCCS(=O)(=O)O` [DD], the “Aβ40 Change Insoluble” value is, setting by setting: under setting [1], “− (Decreases in the levels of Aβ of 5 to 19%)”; under setting [2], “− (Decreases in the levels of Aβ of 5 to 19%)”.

As for `CC(C)(CO)NCCCS(=O)(=O)O` [DH], under setting [1], the “Aβ40 Change Insoluble” value is on record as “−− (decreases of 20 to 38%)”, the “Aβ42 Change Insoluble” value is listed as “−−− (decreases of 39% or more)” and the “Aβ42 Change Soluble” value is on record as “−−− (decreases of 39% or more)”. Under setting [2], the “Aβ40 Change Insoluble” value was “− (Decreases in the levels of Aβ of 5 to 19%)” and the “Aβ42 Change Insoluble” value is “− (Decreases in the levels of Aβ of 5 to 19%)”.

Regarding `CC(C)(NCCCS(=O)(=O)O)c1ccccc1` [DM], under setting [1], the “Aβ40 Change Insoluble” value is on record as “+ (increases in the levels of Aβ (relative to untreated control) of 20 to 39%)”, the “Aβ42 Change Insoluble” value is given as “− (Decreases in the levels of Aβ of 5 to 19%)” and the “Aβ42 Change Soluble” value is listed as “− (Decreases in the levels of Aβ of 5 to 19%)”. In addition, under setting [2], the “Aβ40 Change Insoluble” value is on record as “−− (decreases of 20 to 38%)”, the “Aβ40 Change Soluble” value is recorded as “− (Decreases in the levels of Aβ of 5 to 19%)”, the “Aβ42 Change Insoluble” value was “−− (decreases of 20 to 38%)” and the “Aβ42 Change Soluble” value is “−− (decreases of 20 to 38%)”.

With `C#CC1(NCCCS(=O)(=O)O)CCCCC1` [DX], under setting [1], the “Aβ40 Change Insoluble” value is “−− (decreases of 20 to 38%)” and the “Aβ42 Change Insoluble” value is “− (Decreases in the levels of Aβ of 5 to 19%)”. Moreover, under setting [2], the “Aβ40 Change Insoluble” value is recorded as “−− (decreases of 20 to 38%)”, the “Aβ42 Change Insoluble” value is “−− (decreases of 20 to 38%)” and the “Aβ42 Change Soluble” value is on record as “− (Decreases in the levels of Aβ of 5 to 19%)”.

Regarding `O=S(=O)(O)CCCNCC(O)c1ccccc1` (centres unmarked) [DY], under setting [1], the “Aβ40 Change Insoluble” value was “−− (decreases of 20 to 38%)” and the “Aβ42 Change Insoluble” value was “−− (decreases of 20 to 38%)”. Also, under setting [2], the “Aβ40 Change Insoluble” value is “−−− (decreases of 39% or more)”, the “Aβ42 Change Insoluble” value is reported as “−− (decreases of 20 to 38%)” and the “Aβ42 Change Soluble” value was “− (Decreases in the levels of Aβ of 5 to 19%)”.

Turning to `COc1ccc([C@H](C)NCCCS(=O)(=O)O)cc1` [DZ], the “Aβ42 Change Insoluble” value under setting [1] is reported as “−− (decreases of 20 to 38%)”. Under setting [2], the “Aβ40 Change Insoluble” value is “−− (decreases of 20 to 38%)”, the “Aβ40 Change Soluble” value is listed as “− (Decreases in the levels of Aβ of 5 to 19%)”, the “Aβ42 Change Insoluble” value is reported as “−− (decreases of 20 to 38%)” and the “Aβ42 Change Soluble” value is “−− (decreases of 20 to 38%)”.

Take `CC1CC(NCCCS(=O)(=O)O)CC(C)(C)C1` (centres unmarked) [ED]: under setting [1], the “Aβ40 Change Insoluble” value is recorded as “+ (increases in the levels of Aβ (relative to untreated control) of 20 to 39%)” and the “Aβ40 Change Soluble” value is recorded as “− (Decreases in the levels of Aβ of 5 to 19%)”. Besides, under setting [2], the “Aβ40 Change Insoluble” value is “−− (decreases of 20 to 38%)”, the “Aβ40 Change Soluble” value is on record as “− (Decreases in the levels of Aβ of 5 to 19%)”, the “Aβ42 Change Insoluble” value was “− (Decreases in the levels of Aβ of 5 to 19%)” and the “Aβ42 Change Soluble” value was “− (Decreases in the levels of Aβ of 5 to 19%)”.

With `COC[C@H](NCCCS(=O)(=O)O)[C@@H](O)c1ccccc1` [EG], under setting [1], the “Aβ40 Change Insoluble” value was “−− (decreases of 20 to 38%)”, the “Aβ40 Change Soluble” value is listed as “− (Decreases in the levels of Aβ of 5 to 19%)”, the “Aβ42 Change Insoluble” value was “−− (decreases of 20 to 38%)” and the “Aβ42 Change Soluble” value was “−− (decreases of 20 to 38%)”. Further, under setting [2], the “Aβ40 Change Insoluble” value was “−− (decreases of 20 to 38%)” and the “Aβ42 Change Insoluble” value is “−− (decreases of 20 to 38%)”.
